Data taken from ChEMBL document CHEMBL1142732, “In-depth study of tripeptide-based alpha-ketoheterocycles as inhibitors of thrombin. Effective utilization of the S1' subsite and its implications to structure-based drug design” (J Med Chem, 2005).

Tests used:
Prothrombin [1] = target: T1, Prothrombin (Homo sapiens, UniProt P00734); experiment: Inhibitory concentration against human alpha thrombin
Prothrombin [2] = target: T1, Prothrombin; experiment: Binding affinity determined against human alpha thrombin
Serine protease 1 = target: T2, Serine protease 1 (Bos taurus, UniProt P00760); experiment: Binding affinity against bovine trypsin
T2 sequence (P00760 whole entry): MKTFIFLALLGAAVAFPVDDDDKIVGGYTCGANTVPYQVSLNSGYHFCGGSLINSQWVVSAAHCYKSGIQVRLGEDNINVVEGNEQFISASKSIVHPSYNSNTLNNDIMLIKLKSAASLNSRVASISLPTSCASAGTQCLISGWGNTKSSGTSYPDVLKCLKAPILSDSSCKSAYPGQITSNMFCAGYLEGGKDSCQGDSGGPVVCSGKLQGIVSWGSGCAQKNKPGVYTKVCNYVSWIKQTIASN

Homo sapiens = species: Homo sapiens; experiment: Inhibitory concentration against gel filtered platelet aggregation induced by alpha thrombin; assay type: functional
Cavia porcellus [3] = experiment: Percent change in blood pressure in guinea pig at 3 mg/kg dose
Cavia porcellus [4] = experiment: Percent change in blood pressure in guinea pig at 10 mg/kg dose

`CN[C@H](Cc1ccccc1)C(=O)N1CCC[C@H]1C(=O)N[C@@H](CCCOC)C(=O)c1nc2ccccc2s1` gave an IC50 (Prothrombin [1]) of 46000 nM, a Ki (Prothrombin [2]) of 3900 nM and a Ki (Serine protease 1) of 12000 nM.
With `CN[C@H](Cc1ccccc1)C(=O)N1CCC[C@H]1C(=O)NC(C(=O)c1nc2ccccc2s1)C1CCC(N)CC1` (stereo partly drawn) the IC50 (Homo sapiens) was 76 nM, the “Delta BP” value (Cavia porcellus [3]) was -25% and the IC50 (Prothrombin [1]) was 1900 nM. It also gave a Ki (Prothrombin [2]) of 110 nM and a Ki (Serine protease 1) of 330 nM.
`CN[C@H](Cc1ccccc1)C(=O)N1CCCC[C@H]1C(=O)NC(CCCN=C(N)N)C(=O)c1nc2ccccc2s1` (stereo partly drawn) was tested, and the IC50 (Homo sapiens) was 10 nM, the “Delta BP” value (Cavia porcellus [3]) was -45% and the IC50 (Prothrombin [1]) was 38 nM. It also gave a Ki (Prothrombin [2]) of 0.34 nM and a Ki (Serine protease 1) of 1.8 nM.
`CN[C@H](Cc1ccccc1)C(=O)N1CCC[C@H]1C(=O)NC(CCCN=C(N)N)C(=O)c1nc2ccccc2o1` (stereo partly drawn) showed an IC50 (Prothrombin [1]) of 110 nM, a Ki (Prothrombin [2]) of 6.2 nM and a Ki (Serine protease 1) of 13 nM.
For `CCS(=O)(=O)N[C@H](Cc1ccccc1)C(=O)N1CCC[C@H]1C(=O)NC(C(=O)c1nc2ccccc2s1)C1CCC(N)CC1` (stereo partly drawn), the IC50 (Homo sapiens) was 120 nM, the IC50 (Prothrombin [1]) was 460 nM and the Ki (Prothrombin [2]) was 53 nM. It also gave a Ki (Serine protease 1) of 87 nM.
For `CN[C@H](Cc1ccccc1)C(=O)N1CCC[C@H]1C(=O)N[C@H](CCCN=C(N)N)C(=O)c1nc2ccccc2s1`, the IC50 (Prothrombin [1]) was 80 nM and the Ki (Prothrombin [2]) was 17 nM.
In the case of `CN[C@H](Cc1ccccc1)C(=O)N1CCC[C@H]1C(=O)N[C@@H](CCCNC(=N)N)C(=O)c1nccn1C`, the IC50 (Homo sapiens) is reported as 230 nM, the IC50 (Prothrombin [1]) is reported as 1500 nM and the “Delta BP” value (Cavia porcellus [4]) is reported as -68%. It also gave a Ki (Serine protease 1) of 5800 nM.
For `CN[C@H](Cc1ccccc1)C(=O)N1CCC[C@H]1C(=O)N[C@@H](C[C@H]1CCCN(C(=N)N)C1)C(=O)c1nc2ccccc2s1`, the IC50 (Prothrombin [1]) was 1000 nM, the Ki (Prothrombin [2]) was 99 nM and the Ki (Serine protease 1) was 210 nM.
`N=C(N)NCCC[C@H](NC(=O)CN1CCCC[C@H](NS(=O)(=O)Cc2ccccc2)C1=O)C(=O)c1nc2ccccc2s1` showed an IC50 (Homo sapiens) of 47 nM, an IC50 (Prothrombin [1]) of 270 nM and a Ki (Prothrombin [2]) of 16 nM. The “Delta BP” value (Cavia porcellus [4]) was -39% and the Ki (Serine protease 1) was 9.4 nM.
In the case of `CN[C@H](Cc1ccccc1)C(=O)N1CCC[C@H]1C(=O)N[C@@H](CCCN=C(N)N)C(O)c1nc2ccccc2s1` (stereo in doubt; form 2), the IC50 (Prothrombin [1]) is reported as 17000 nM, the Ki (Prothrombin [2]) is reported as 1600 nM and the Ki (Serine protease 1) is reported as 250000 nM.
With `CN[C@H](Cc1ccccc1)C(=O)N1CCC[C@H]1C(=O)N[C@@H](CCCN=C(N)N)C(O)c1nc2ccccc2s1` (stereo in doubt; form 1) the IC50 (Prothrombin [1]) was 48000 nM, the Ki (Prothrombin [2]) was 5300 nM and the Ki (Serine protease 1) was 180000 nM.
Molecule `CN[C@H](Cc1ccccc1)C(=O)N1CCC[C@H]1C(=O)N[C@@H](CCCNC(=N)N)C(=O)c1ccccn1` has an IC50 (Prothrombin [1]) of 930 nM.
Molecule `CN[C@H](Cc1ccccc1)C(=O)N1CCC[C@H]1C(=O)N[C@H](C[C@H]1CCCN(C(=N)N)C1)C(=O)c1nc2ccccc2s1` has a Ki (Prothrombin [2]) of 380 nM and a Ki (Serine protease 1) of 540 nM.
`CN[C@H](Cc1c(F)c(F)c(F)c(F)c1F)C(=O)N1CCC[C@H]1C(=O)NC(CCCN=C(N)N)C(=O)c1nc2ccccc2s1` (stereo partly drawn) gave an IC50 (Prothrombin [1]) of 150 nM, a Ki (Prothrombin [2]) of 3.8 nM and a Ki (Serine protease 1) of 9.3 nM.
With `CN[C@@H](C(=O)N1CCC[C@H]1C(=O)NC(CCCN=C(N)N)C(=O)c1nc2ccccc2s1)c1ccccc1` (stereo partly drawn) the IC50 (Homo sapiens) was 17 nM, the “Delta BP” value (Cavia porcellus [3]) was -63% and the IC50 (Prothrombin [1]) was 34 nM. It also gave a Ki (Prothrombin [2]) of 0.46 nM.
`CN[C@H](Cc1ccccc1)C(=O)N1CCC[C@H]1C(=O)NC(CCCN=C(N)N)C(=O)c1nc2ccc(O)cc2s1` (stereo partly drawn) was tested, and the “Delta BP” value (Cavia porcellus [3]) was -34%.
For `N=C(N)NCCCC(NC(=O)C1CCCC1)C(=O)c1nc2ccccc2s1` (stereo not drawn), the Ki (Serine protease 1) was 30 nM.
For `CC(=O)N[C@H](Cc1ccccc1)C(=O)N1CCC[C@H]1C(=O)NC(CCCN=C(N)N)C(=O)c1nc2ccccc2s1` (stereo partly drawn), the IC50 (Prothrombin [1]) was 430 nM and the Ki (Serine protease 1) was 2.4 nM.
`CN[C@H](Cc1ccccc1)C(=O)N1CCC[C@H]1C(=O)N[C@H](CCCCN)C(=O)c1nc2ccccc2s1` was tested, and the “Delta BP” value (Cavia porcellus [3]) was -41%, the Ki (Prothrombin [2]) was 210 nM and the Ki (Serine protease 1) was 20 nM.
With `CN[C@H](Cc1ccccc1)C(=O)N1CCC[C@H]1C(=O)NC(CCCN=C(N)N)C(=O)c1nc2ccccc2n1C` (stereo partly drawn) the IC50 (Homo sapiens) was 59 nM, the “Delta BP” value (Cavia porcellus [3]) was -30% and the IC50 (Prothrombin [1]) was 110 nM. The Ki (Prothrombin [2]) was 8.1 nM and the Ki (Serine protease 1) was 290 nM.
In the case of `NC(N)=NCCCC(NC=O)C(=O)c1nc2ccccc2s1` (stereo not drawn), the IC50 (Prothrombin [1]) is reported as > 50000 nM and the Ki (Serine protease 1) is reported as 1300 nM.
With `Cc1cccc(C(C)(C)CN(CC(=O)N[C@@H](CCCN=C(N)N)C(=O)c2nc3ccccc3s2)C(=O)CCc2ccccc2)c1` the IC50 (Prothrombin [1]) was 4000 nM, the Ki (Prothrombin [2]) was 400 nM and the Ki (Serine protease 1) was 57 nM.
Work on `CN[C@H](Cc1ccccc1)C(=O)N1CCC[C@H]1C(=O)N[C@H](C=O)CCCN=C(N)N` (stereo in doubt) yielded a Ki (Prothrombin [2]) of 18 nM.
`C[C@@](N)(Cc1ccccc1)C(=O)N1CCC[C@H]1C(=O)NC(CCCN=C(N)N)C(=O)c1nc2ccccc2s1` (stereo partly drawn) showed a Ki (Serine protease 1) of 3.9 nM.
`CN[C@H](Cc1ccccc1)C(=O)N1CCC[C@H]1C(=O)N[C@@H](Cc1cccc(C(=N)N)c1)C(=O)c1nc2ccccc2s1` was tested, and the Ki (Prothrombin [2]) was 0.99 nM and the Ki (Serine protease 1) was 1.8 nM.
In the case of `CN[C@H](Cc1ccccc1)C(=O)N1CCC[C@H]1C(=O)N[C@@H](CCCNC(=N)N)C(=O)c1nccs1`, the IC50 (Prothrombin [1]) is reported as 19 nM and the Ki (Serine protease 1) is reported as 1.2 nM.
